Source: ChEMBL document CHEMBL5034044, “Novel Compounds for Targeted Degradation of BRD9 and Their Use for Treating Cancer” (ACS Med Chem Lett, 2022)

Biological target: T1, Bromodomain-containing protein 9 (Homo sapiens, UniProt Q9H8M2)
T1 sequence (Q9H8M2 whole entry): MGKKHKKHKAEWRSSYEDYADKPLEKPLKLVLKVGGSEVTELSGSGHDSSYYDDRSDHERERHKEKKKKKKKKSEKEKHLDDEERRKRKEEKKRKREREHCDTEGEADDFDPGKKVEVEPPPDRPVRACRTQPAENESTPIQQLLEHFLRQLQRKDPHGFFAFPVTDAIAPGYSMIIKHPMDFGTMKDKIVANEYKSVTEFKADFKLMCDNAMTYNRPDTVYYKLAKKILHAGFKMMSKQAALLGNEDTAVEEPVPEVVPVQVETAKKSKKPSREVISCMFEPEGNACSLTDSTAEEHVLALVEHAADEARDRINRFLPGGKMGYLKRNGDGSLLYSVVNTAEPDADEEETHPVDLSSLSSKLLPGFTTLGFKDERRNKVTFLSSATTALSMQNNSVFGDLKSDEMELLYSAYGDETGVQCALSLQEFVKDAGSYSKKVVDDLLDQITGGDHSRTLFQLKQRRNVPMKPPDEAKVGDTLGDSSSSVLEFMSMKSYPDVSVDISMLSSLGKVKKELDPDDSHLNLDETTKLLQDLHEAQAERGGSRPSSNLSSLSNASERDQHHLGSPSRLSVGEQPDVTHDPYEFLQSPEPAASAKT
Experiment: Induction of degradation of BRD9 (unknown origin) assessed as protein degradation measured after 2 hrs by HiBit Lytic assay

Structure (SMILES)	DC50 [nM]
COc1cc(-c2cn(C)c(=O)c(C)c2C)cc(OC)c1CN1CCN(C(=O)CC2CCN(c3ccc(NC4CCC(=O)NC4=O)cc3C(F)(F)F)CC2)CC12CC2 (stereo unspecified)	< 100
CC(c1ccc(-c2cn(C)c(=O)c3cc(F)ccc23)cc1OC(F)(F)F)N1CCC(C2CCN(c3ccc(NC4CCC(=O)NC4=O)cc3F)CC2)CC1 (stereo unspecified)	< 100
COc1cc(-c2cn(C)c(=O)c3cnccc23)c(Cl)cc1CN1CCC(N2CCN(c3ccc(NC4CCC(=O)NC4=O)cc3F)CC2)C(F)(F)C1 (stereo unspecified)	< 100

More lines, now with the values ahead:

DC50 [nM]	Structure (SMILES)
< 100	COc1cc(-c2cn(C)c(=O)c(C)c2C)cc(Cl)c1CN1CCC(N2CCN(c3ccc(NC4CCC(=O)NC4=O)cc3F)CC2)C(F)(F)C1 (stereo unspecified)
< 100	COc1cc(-c2cn(C)c(=O)c3[nH]ncc23)cc(OC)c1CN1CCC2(CC1)CN(C(=O)CN1CCC(c3ccc(NC4CCC(=O)NC4=O)cc3)CC1)C2 (stereo unspecified)
< 100	COc1cc(-c2cn(C)c(=O)c3[nH]ncc23)cc(OC)c1CN1CCc2c(CN3CCC(c4ccc(NC5CCC(=O)NC5=O)cc4)C(F)(F)C3)csc2C1 (stereo unspecified)
